Results on 19 compounds are retold here after patent publication US20170129903A1, “COMPOUNDS COMPRISING 1,1a,2,5a-TETRAHYDROSPIRO[INDOLE-3,2a-PYRROLE]-2,5a-DIONE SYSTEM AS INHIBITORS P53-MDM2 PROTEIN-PROTEIN INTERACTION” (ADAMED SP. Z O.O., priority 2014, published 2017).

Experiment [1] relates to SJSA-1 osteosarcoma cell line. The experiment is described as follows: MTT cell viability assay. Conditions: Homo sapiens, SJSA-1, 72 h, 72 h incubation, average of 2-5 experiments. It is filed as cell-based. As for the experimental part: The effect of the invented p53-Mdm2 inhibitors on cell viability has been assessed using MTT assay. It is a colorimetric assay that measures conversion of tetrazolium ring of the soluble yellow dye (MTT) into insoluble purple formazan. This process is catalysed solely in mitochondrial dehydrogenases of living cells.
Cells were seeded on 96-well plates and then treated with successive dilutions of tested compounds. After 72 h incubation, MTT was added to the final concentration 0.5 mg/ml. The cells were further incubated for the next 4 h. Then the solution was drained and the remaining formazan crystals were dissolved in 100 μl DMSO. […] All the MTT experiments were independently repeated 2-5 times. Dose-dependent binding curves and IC50 values were calculated using GraphPad Prism 5.
A general note: Tetrazolium dyes change colour on reduction, which living cells bring about.

Experiment [2] deals with T1, p53-Mdm2 interaction (N-terminal domain of Mdm2 protein, amino acids 1-111) (Homo sapiens, UniProt Q00987).
T1 construct: N-terminal domain of Mdm2 protein (amino acids 1-111)
The experiment is described as follows: Fluorescence polarization (FP) binding assay of p53-Mdm2 interaction. To be noted: FP assay, 130 nM Mdm2, FAM-labelled p53 peptide; Ki transformed from IC50 using Kenakin equation. As for the experimental part:
The inhibition of p53-Mdm2 interaction was measured using a fluorescence polarization (FP) binding assay. FP measures the rotational movement of molecules in a homogenous suspension. For this assay, N-terminal domain of Mdm2 protein (amino acids 1-111) is combined with a fluorescein-labelled (FAM) peptide derived from p53 trans-activation domain. Upon excitation of the fluorescent ligand with linearly polarized light, […]. If the peptide is bound by Mdm2, rotation will slow down and the perpendicular component will decrease. Disruption of the formation of the peptide-Mdm2 complex due to an inhibitor molecule binding to the p53 binding site of Mdm2 results in faster rotation of the peptide.
Fluorescence polarization experiments were read on Tecan Infinite M1000 reader with the 470 nm excitation and 520 nm emission filters for fluorescein. The fluorescence polarization was measured in black 96-well plates (Corning, CLS3991) in room temperature. Purity of Mdm2 was controlled at >95%. Reaction buffer was optimized by adding 5 mM DTT and 0.1% zwitterionic detergent CHAPS to reduce effect of nonspecific interactions.
The test was performed by combining successive dilution of compounds diluted in dimethyl sulfoxide (DMSO, 5% final concentration) with 130 nM Mdm2 in reaction buffer (PBS, 0.1% CHAPS, 5 mM DTT (dithiothreitol)). After 15 minutes of incubation in room temperature […] FAM-labelled peptide was added. Final reading was performed after 90 minutes of incubation. Dose-dependent binding curves and IC50 values were calculated using GraphPad Prism5 and next transformed to Ki values using Kenakin equation.

T1 sequence (Q00987 1-111): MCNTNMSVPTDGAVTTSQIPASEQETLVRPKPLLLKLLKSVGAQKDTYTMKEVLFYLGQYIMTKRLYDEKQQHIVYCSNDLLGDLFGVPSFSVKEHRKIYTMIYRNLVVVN

As a reminder, the IC50 is the concentration needed to halve the response being measured. For orientation: Ki means the equilibrium dissociation constant of an inhibitor or competing ligand from its target. A higher Ki goes with a looser hold on the target. As for `O=C1C(O)=C(c2ccccc2)C2(C(=O)Nc3cc(Cl)c(Cl)cc32)N1c1cccc(Cl)c1` (centres unmarked) [Compound 43, 5,6-dichloro-1′-(3-chlorophenyl)-4′-hydroxy-3′-phenyl-1,1′,2,5′-tetrahydrospiro [indole-3,2′-pyrrole]-2,5′-dione], in experiment [1], the IC50 stood at 43.8 µM. The compound also gave a Ki in experiment [2] of 650 nM.

The compound `COc1ccc(C(N)=O)cc1-n1cc2c(c1C(C)C)C1(C(=O)Nc3cc(Cl)ccc31)N(c1cc(Cl)ccc1C)C2=O` (centres unmarked) [Compound 95, 3-[6-chloro-2′-(5-chloro-2-methylphenyl)-2,3′-dioxo-6′-(propan-2-yl)-1,2,3′,5′-tetrahydro-2′H-spiro[indole-3,1′-pyrrolo [3,4-c]pyrrole]-5′-yl]-4-methoxybenzamide] yielded an IC50 in experiment [1] of 0.3 µM. The same compound came in with a Ki in experiment [2] of 1.8 nM.

Regarding `COc1ccc(C(N)=O)cc1-n1cc2c(c1C(C)C)[C@@]1(C(=O)Nc3cc(Cl)ccc31)N(c1cc(Cl)ccc1C)C2=O` [Compound 110, 3-[(3S)-6-chloro-2′-(5-chloro-2-methylphenyl)-2,3′-dioxo-6′-(propan-2-yl)-1,2,3′,5′-tetrahydro-2′H-spiro[indole-3,1′-pyrrolo[3,4-c]pyrrole]-5′-yl]-4-methoxybenzamide], 0.35 µM corresponded to half-maximal inhibition in experiment [1] (IC50). For the same compound, in experiment [2], the Ki was determined as 1.7 nM.

In the case of `Cc1ccc(Cl)cc1N1C(=O)c2cn(-c3cccc4c3OCO4)c(C(C)C)c2C12C(=O)Nc1cc(Cl)ccc12` (centres unmarked) [Compound 94, 5′-(2H-1,3-benzodioxol-4-yl)-6-chloro-2′-(5-chloro-2-methylphenyl)-6′-(propan-2-yl)-1,2,3′,5′-tetrahydro-2′H-spiro[indole-3,1′-pyrrolo[3,4-c]pyrrole]-2,3′-dione], the IC50 in experiment [1] stood at 0.93 µM. This compound also had a Ki in experiment [2] of 9.6 nM.

On to `COc1ccc(-n2cc3c(c2C(C)C)[C@@]2(C(=O)Nc4cc(Cl)ccc42)N(c2cc(Cl)cnc2C)C3=O)c(OC)c1` [Compound 111, (3S)-6-chloro-2′-(5-chloro-2-methyl-pyridin-3-yl)-5′-(2,4-dimethoxyphenyl)-6′-(propan-2-yl)-1,2,3′,5′-tetrahydro-2′H-spiro[indole-3,1′-pyrrolo[3,4-c]pyrrole]-2,3′-dione], for which the IC50 in experiment [1] amounted to 0.12 µM. In experiment [2], the Ki is 2.8 nM.

For the compound `CN(C)C(=O)C1CCCC1Cn1nc2c(c1C1(C)CC1)C1(C(=O)Nc3cc(Cl)ccc31)N(c1cccc(Cl)c1)C2=O` (centres unmarked) [Compound 29, 2-[6-chloro-5′-(3-chlorophenyl)-3′-(1-methylcyclopropyl)-2,6′-dioxo-1,2,5′,6′-tetrahydro-2′H-spiro[indole-3,4′-pyrrolo [3,4-c]pyrazole]-2′-ylmethyl]-N,N-dimethylcyclopentane-1-carboxamide], in experiment [1], the IC50 amounted to 48.8 µM. Besides, the Ki in experiment [2] was found to be 358 nM.

Compound `O=C1C(O)=C(c2ccccc2)C2(C(=O)Nc3cc(Cl)ccc32)N1c1cccc(Cl)c1` (centres unmarked) [Compound 41, 6-chloro-1′-(3-chlorophenyl)-4′-hydroxy-3′-phenyl-1,1′,2,5′-tetrahydrospiro[indole-3,2′-pyrrole]-2,5′-dione] had an IC50 in experiment [1] of 21.4 µM. The same compound had a Ki in experiment [2] of 24 nM.

Regarding `COc1ccc(CSC2=C(O)C(=O)N(c3cccc(Cl)c3)C23C(=O)Nc2cc(Cl)ccc23)cc1` (centres unmarked) [Compound 59, 6-chloro-1′-(3-chlorophenyl)-4′-hydroxy-3′-{[(4-methoxyphenyl)methyl]sulfanyl}-1,1′,2,5′-tetrahydrospiro[indole-3,2′-pyrrole]-2,5′-dione], the IC50 in experiment [1] came out at 37.5 µM. The compound also returned a Ki in experiment [2] of 178 nM.

In turn, `COc1ccccc1-n1nc2c(c1C(C)C)[C@@]1(C(=O)Nc3cc(Cl)ccc31)N(c1cc(Cl)ccc1C)C2=O` [Compound 65, (3S)-6-chloro-5′-(5-chloro-2-methyl-phenyl)-2′-(2-methoxyphenyl)-3′-(propan-2-yl)-1,2,5′,6′-tetrahydro-2′H-spiro[indole-3,4′-pyrrolo[3,4-c]pyrazole]-2,6′-dione] had an IC50 in experiment [1] of 0.22 µM. In experiment [2], the affinity, expressed as Ki, was 1.9 nM.

With `CCOC(=O)CNC1=C(c2ccccc2)C2(C(=O)Nc3cc(Cl)ccc32)N(c2cccc(Cl)c2)C1=O` (centres unmarked) [Compound 48, ethyl 2-{[6-chloro-1′-(3-chlorophenyl)-2,5′-dioxo-3′-phenyl-1,1′,2,5′-tetrahydrospiro[indole-3,2′-pyrrole]-4′-yl]amino}acetate], in experiment [1], the IC50 worked out at 28 µM. Further, in experiment [2], affinity was put at a Ki of 205 nM.

In experiment [1], `COc1ccccc1-n1cc2c(c1C(C)C)C1(C(=O)Nc3cc(Cl)ccc31)N(c1cc(Cl)ccc1NS(C)(=O)=O)C2=O` (centres unmarked) [Compound 92, N-{4-chloro-2-[6-chloro-5′-(2-methoxy-phenyl)-2,3′-dioxo-6′-(propan-2-yl)-1,2,3′,5′-tetrahydro-2′H-spiro[indole-3,1′-pyrrolo[3,4-c]pyrrole]-2′-yl]phenyl} methanesulfonamide] returned an IC50 of 1.07 µM. The affinity in experiment [2], expressed as Ki, was 6.6 nM.

Compound `CC(C)c1c2c(nn1CC1CCCN1C(=O)N(C)C)C(=O)N(c1cccc(Cl)c1)C21C(=O)Nc2cc(Cl)ccc21` (centres unmarked) [Compound 34, 2-[6-chloro-5′-(3-chlorophenyl)-2,6′-dioxo-3′-(propan-2-yl)-1,2,5′,6′-tetrahydro-2′H-spiro[indole-3,4′-pyrrolo [3,4-c]pyrazole]-2′-ylmethyl]-N,N-dimethylpyrrolidine-1-carboxamide] returned an IC50 in experiment [1] of 24.2 µM. Moreover, the Ki in experiment [2] was 235 nM.

Take `CS(=O)(=O)OC1=C(c2ccccc2)C2(C(=O)Nc3cc(Cl)ccc32)N(c2cccc(Cl)c2)C1=O` (centres unmarked) [Compound 52, 6-chloro-1′-(3-chlorophenyl)-2,5′-dioxo-3′-phenyl-1,1′,2,5′-tetrahydrospiro[indole-3,2′-pyrrole]-4′-yl methanesulfonate]: the IC50 in experiment [1] stood at 39.6 µM. The compound also had a Ki in experiment [2] of 800 nM.

For `COc1ccccc1-n1nc2c(c1C(C)C)C1(C(=O)Nc3cc(Cl)ccc31)N(c1cc(Cl)ccc1OCCS(C)(=O)=O)C2=O` (centres unmarked) [Compound 73, 6-chloro-5′-[5-chloro-2-(2-methanesulfonylethoxy)phenyl]-2′-(2-methoxyphenyl)-3′-(propan-2-yl)-1,2,5′,6′-tetrahydro-2′H-spiro[indole-3,4′-pyrrolo [3,4-c]pyrazole]-2,6′-dione], in experiment [1], the IC50 turned out to be 11.4 µM. Moreover, in experiment [2], the affinity, expressed as Ki, was 42 nM.

`COc1ccc(S(=O)(=O)N2CCOCC2)cc1-n1cc2c(c1C(C)C)C1(C(=O)Nc3cc(Cl)ccc31)N(c1cc(Cl)ccc1C)C2=O` (centres unmarked) [Compound 112, 6-chloro-2′-(5-chloro-2-methylphenyl)-5′-[2-methoxy-5-(morpholine-4-sulfonyl)phenyl]-6′-(propan-2-yl)-1,2,3′,5′-tetrahydro-2′H-spiro[indole-3,1′-pyrrolo [3,4-c]pyrrole]-2,3′-dione]: half-maximal inhibition in experiment [1] (IC50) was put at 0.15 µM. The affinity in experiment [2] corresponds to a Ki of 3.5 nM.

In experiment [1], `COc1ccc(-n2cc3c(c2C(C)C)C2(C(=O)Nc4cc(Cl)ccc42)N(c2cc(Cl)cnc2C)C3=O)c(OC)c1` (centres unmarked) [Compound 104, 6-chloro-2′-(5-chloro-2-methylpyridin-3-yl)-5′-(2,4-dimethoxyphenyl)-6′-(propan-2-yl)-1,2,3′,5′-tetrahydro-2′H-spiro[indole-3,1′-pyrrolo[3,4-c]pyrrole]-2,3′-dione] came in with an IC50 of 0.16 µM. The same compound yielded a Ki in experiment [2] of 3.1 nM.

Take `COc1ccc(Cl)cc1N1C(=O)c2n[nH]c(C(C)C)c2C12C(=O)Nc1cc(Cl)ccc12` (centres unmarked) [Compound 25, 6-chloro-5′-(5-chloro-2-methoxyphenyl)-3′-(propan-2-yl)-1,2,5′,6′-tetrahydro-2′H-spiro[indole-3,4′-pyrrolo[3,4-c]pyrazole]-2,6′-dione]: the midpoint of inhibition in experiment [1], the IC50, lay at 10.2 µM. In experiment [2], this compound yielded a Ki of 94 nM.

In experiment [1], `COc1ccccc1-n1cc2c(c1C(C)C)[C@@]1(C(=O)Nc3cc(Cl)ccc31)N(c1cc(Cl)ccc1NS(C)(=O)=O)C2=O` [Compound 102, N-{4-chloro-2-[(3S)-6-chloro-5′-(2-methoxy-phenyl)-2,3′-dioxo-6′-(propan-2-yl)-1,2,3′,5′-tetrahydro-2′H-spiro[indole-3,1′-pyrrolo[3,4-c]pyrrole]-2′-yl]phenyl} methanesulfonamide] showed a half-maximal inhibitory concentration (IC50) of 0.66 µM. For the same compound, the Ki in experiment [2] came to 2.9 nM.

Consider `O=C1C(O)=C(C2CCCCC2)C2(C(=O)Nc3cc(Cl)ccc32)N1c1cccc(Cl)c1` (centres unmarked) [Compound 44, 6-chloro-1′-(3-chlorophenyl)-3′-cyclohexyl-4′-hydroxy-1,1′,2,5′-tetrahydrospiro[indole-3,2′-pyrrole]-2,5′-dione], for which, in experiment [1], the IC50 came to 18.1 µM. The same compound returned a Ki in experiment [2] of 281 nM.
